{"source": "patent US20230146239A1", "about": "(THE SCRIPPS RESEARCH INSTITUTE, priority 2020, published 2023)", "key": {"[1]": {"system": "VanA E. faecium (ATCC BAA-2317)", "assay": "In vitro antimicrobial microdilution assay (MIC)", "assay_type": "cell-based, Enterococcus faecium", "from_the_text": "(§1) The lowest concentration of antibiotic (in μg/mL) capable of eliminating cell growth in the wells is the reported MIC value."}, "VanA VRE, 4 strains": {"system": "VanA VRE, 4 strains", "assay": "Antimicrobial activity against VanA VRE panel (4 strains), summarised in text", "assay_type": "cell-based, Enterococcus faecalis, Enterococcus faecium", "from_the_text": "as §1"}, "[2]": {"system": "VanA E. faecalis BM 4166 or ATCC BAA-2573", "assay": "microbe, parasite or virus in culture", "assay_type": "cell-based", "conditions": "Enterococcus faecalis, ATCCBAA2573, read-out: MIC, VanA E. faecalis", "from_the_text": "as §1"}, "[3]": {"assay": "Mouse pharmacokinetics, iv", "conditions": "10 mg/kg", "method": "Plasma was obtained by centrifugation using a microcentrifuge fit with a hematocrit rotor, and obtained plasma was immediately frozen. The use of micro-sampling blood collection reduces the total blood taken from the mouse and allows a single mouse to be used for the entire time course, reducing inter-individual variability and maintaining the health of the mouse.\nDrug levels were determined by mass spectrometry using an ABSciex 5500 mass spectrometer using multiple reaction monitoring. […] All PK work was conducted in the Scripps Florida vivarium which is fully AAALAC accredited. Procedures were approved by the Scripps Florida IACUC, protocol number 15-022."}, "[4]": {"system": "VanA VRE E. faecalis BM 4166 and E. faecium ATCC BAA-2317", "conditions": "previously reported; C1-vancomycin even at 100 μM; cited from earlier work"}, "[5]": {"conditions": "mice, earlier studies; cited from earlier work"}, "[6]": {"conditions": "mice, cited from earlier work"}, "[7]": {"system": "VanA E. faecalis (BM 4166)", "assay": "In vitro antimicrobial microdilution assay (MIC)", "assay_type": "cell-based, Enterococcus faecalis", "conditions": "Enterococcus faecalis; read-out: MIC, VanA E. faecalis BM 4166", "from_the_text": "as §1"}, "[8]": {"system": "VanA E. faecalis (ATCC BAA-2573)", "assay": "In vitro antimicrobial microdilution assay (MIC)", "assay_type": "cell-based, Enterococcus faecalis", "conditions": "Enterococcus faecalis, ATCCBAA2573; read-out: MIC, VanA E. faecalis ATCC BAA-2573", "from_the_text": "as §1"}, "VanA E. faecium (TX2465)": {"system": "VanA E. faecium (TX2465)", "assay": "In vitro antimicrobial microdilution assay (MIC)", "assay_type": "cell-based, Enterococcus faecium", "conditions": "Enterococcus faecium; read-out: MIC, VanA E. faecium TX2465", "from_the_text": "as §1"}, "[9]": {"system": "VanA E. faecalis (BM 4166)", "conditions": "earlier trimethylammonium cation modified analogues; cited from earlier work"}, "[10]": {"system": "VanA E. faecium (ATCC BAA-2317)", "conditions": "earlier trimethylammonium cation modified analogues; cited from earlier work"}, "[11]": {"conditions": "Enterococcus faecium, ATCCBAA2317, read-out: MIC, VanA E. faecium ATCC BAA-2317"}, "[12]": {"conditions": "iv, 10 mg/kg, earlier study, listed as C1-CBP-vancomycin (4)"}}, "note": "Where two headings read alike, the source gives them in different places."}
{"compound": "CN[C@H](CC(C)C)C(=O)N[C@H]1C(=O)N[C@@H](CC(N)=O)C(=O)N[C@H]2C(=O)NC3C(=O)N[C@H](C(=O)N[C@H](C(=O)NCCC[N+](C)(C)C)c4cc(O)cc(O)c4-c4cc3ccc4O)[C@H](O)c3ccc(c(Cl)c3)Oc3cc2cc(c3OC2OC(CO)C(O)[C@H](O)[C@@H]2O[C@H]2CC(C)(NCc3ccc(-c4ccc(Cl)cc4)cc3)[C@H](O)[C@H](C)O2)Oc2ccc(cc2Cl)[C@H]1O", "note": "(single isomer, unassigned) [Compound 4, C1-CBP-vancomycin]", "values": [{"measurement": "MIC", "setting": "[1]; [11]", "value": 0.5, "unit": "mg/L"}, {"measurement": "more potent than vancomycin", "setting": "VanA VRE, 4 strains", "value": "about 1000 fold"}, {"measurement": "MIC", "setting": "[2]", "value": 0.25, "unit": "mg/L"}, {"measurement": "AUC", "setting": "[3]; female, CD-1, mouse, in vivo", "value": 48.4, "unit": "µg·h/mL"}, {"measurement": "Cmax", "setting": "[3]; female, CD-1, mouse, in vivo", "value": 14.5, "unit": "µg/mL"}, {"measurement": "Vd", "setting": "[3]; female, CD-1, mouse, in vivo", "value": 0.64, "unit": "L/kg"}, {"measurement": "clearance", "setting": "[3]; female, CD-1, mouse, in vivo", "value": 0.12, "unit": "L/h/kg"}, {"measurement": "half-life", "setting": "[3]; female, CD-1, mouse, in vivo", "value": 5.1, "unit": "h"}, {"measurement": "tmax", "setting": "[3]; female, CD-1, mouse, in vivo", "value": 4.8, "unit": "min"}, {"measurement": "MRTlNF—obs", "setting": "[3]; mice", "value": 5.6, "unit": "h"}, {"measurement": "Vd", "setting": "[3]; mice, this study", "value": "(0.64) L/kg"}, {"measurement": "bacterial cell membrane permeabilization", "setting": "[4]", "value": "pronounced membrane permeabilization"}, {"measurement": "MTD", "setting": "[5]", "value": 50, "unit": "mg/kg"}, {"measurement": "terminal half-life (t1/2)", "setting": "[6]; earlier studies", "value": 5, "unit": "h"}, {"measurement": "AUC", "setting": "[6]; [12]", "value": 81.1, "unit": "µg·h/mL"}, {"measurement": "CL", "setting": "[6]; [12]", "value": 0.12, "unit": "L/h/kg"}, {"measurement": "Cmax", "setting": "[6]; [12]", "value": 14.1, "unit": "µg/mL"}, {"measurement": "Vd", "setting": "[6]; [12]", "value": 1.25, "unit": "L/kg"}, {"measurement": "t1/2", "setting": "[6]; [12]", "value": 7.0, "unit": "h"}, {"measurement": "tmax", "setting": "[6]; [12]", "value": 0.50, "unit": "h"}, {"measurement": "AUC", "setting": "[6]; iv, 50 mg/kg, earlier study", "value": 430, "unit": "µg·h/mL"}, {"measurement": "CL", "setting": "[6]; iv, 50 mg/kg, earlier study", "value": 0.12, "unit": "L/h/kg"}, {"measurement": "Cmax", "setting": "[6]; iv, 50 mg/kg, earlier study", "value": 58.9, "unit": "µg/mL"}, {"measurement": "Vd", "setting": "[6]; iv, 50 mg/kg, earlier study", "value": 1.04, "unit": "L/kg"}, {"measurement": "t1/2", "setting": "[6]; iv, 50 mg/kg, earlier study", "value": 6.2, "unit": "h"}]}
{"compound": "CN[C@H](CC(C)C)C(=O)N[C@H]1C(=O)N[C@@H](CC(N)=O)C(=O)N[C@H]2C(=O)N[C@H]3C(=O)N[C@H](C(=O)N[C@H](C(=O)O)c4cc(O)c(CN[C@@H](CCCNC(=N)N)C(=O)OC)c(O)c4-c4cc3ccc4O)[C@H](O)c3ccc(c(Cl)c3)Oc3cc2cc(c3OC2OC(CO)C(O)[C@H](O)C2O[C@H]2CC(C)(N)[C@H](O)[C@H](C)O2)Oc2ccc(cc2Cl)[C@H]1O", "note": "(some centres unmarked) [Compound 27, Arg(OMe)^Ar-vancomycin]", "values": [{"measurement": "MIC", "setting": "[7]", "value": 31, "unit": "mg/L"}, {"measurement": "MIC", "setting": "[1]; Enterococcus faecium, ATCCBAA2317; read-out: MIC, VanA E. faecium ATCC BAA-2317", "value": 8, "unit": "mg/L"}, {"measurement": "MIC", "setting": "[8]", "value": 16, "unit": "mg/L"}, {"measurement": "MIC", "setting": "VanA E. faecium (TX2465)", "value": 63, "unit": "mg/L"}, {"measurement": "less potent compared with Arg(OMe)-vancomycin (Compound 10)", "setting": "VanA VRE, 4 strains; resistant organisms", "value": "≤ 8", "unit": "fold"}]}
{"compound": "CN[C@H](CC(C)C)C(=O)N[C@H]1C(=O)N[C@@H](CC(N)=O)C(=O)N[C@H]2C(=O)NC3C(=O)N[C@H](C(=O)N[C@H](C(=O)NCCC[N+](C)(C)C)c4cc(O)cc(O)c4-c4cc3ccc4O)[C@H](O)c3ccc(c(Cl)c3)Oc3cc2cc(c3OC2OC(CO)C(O)[C@H](O)[C@@H]2O[C@H]2CC(C)(N)[C@H](O)[C@H](C)O2)Oc2ccc(cc2Cl)[C@H]1O", "note": "(some centres unmarked) [Compound 3, C1-vancomycin]", "values": [{"measurement": "MIC", "setting": "[1]; [11]", "value": 31, "unit": "mg/L"}, {"measurement": "MIC", "setting": "[2]", "value": 63, "unit": "mg/L"}, {"measurement": "MIC, VanA E. faecalis BM 4166", "setting": "[9]", "value": 63, "unit": "mg/L"}, {"measurement": "MIC, VanA E. faecium ATCC BAA-2317", "setting": "[10]", "value": 31, "unit": "mg/L"}, {"measurement": "bacterial cell membrane permeabilization", "setting": "[4]", "value": "weaker"}]}
